Experimental data from patent US10993923B2, “Method for ameliorating fibrosis using 1-[4-chloro-3-(trifluoromethyl)phenyl]-3-[3-(4-cyanophenoxy)phenyl]urea” (priority 2016, dated 2021).

Legend:
[1] = tested on: TGF-β, PDGFR and STAT3 pathways in LX2 cells; experiment: Western blot of signalling proteins in LX2 cells; type: cell-based, human; conditions: FIG. 16D, 16E
Protocol: Rat immortal hepatic stellate cell line HSC-T6 and LX2 human hepatic stellate cell line were provided by Professor Scott Friedman of Mount Sinai Hospital in New York, USA. The primary mouse HSCs were obtained via the way: after intubating the hepatic portal vein of the mouse, the cells were perfused with […] and ethylene glycol bis-aminoethyl ether tetraacetic acid (EGTA) buffer in situ, and then collagenase was injected to digest the liver tissue, and then the primary mouse HSCs were isolated by Histodnz gradient. HSC-T6 cells were cultured in Waymouth medium; LX2 cells and primary mouse HSCs were cultured in Dulbecco's Modified Eagle Medium (DMEM) containing 10% fetal bovine serum (FBS), 100 μg/mL penicillin, 100 μg/mL streptomycin, and 2 mM L-glutamine HSC-T6 cells, LX2 cells and primary mouse HSCs were cultured in a humidified incubator containing 5% carbon dioxide at 37° C. After adding the FBS, the resting HSC is started. […] Whole-cell extracts were obtained via RIPA buffer (Millipore, USA) and protein concentrations were quantified via a BCA protein assay kit (Thermo Fisher Scientific, USA). 20 or 25 μg of protein was added to various percentages of SDS-sodium dodecyl sulfate-acrylamide gel and blotted onto a polyvinylidene fluoride (PVDF) membrane. […] Proteins were detected by Immobilon Western Chemiluminescent HRP substrate (Millipore, USA) or ECL detection system (UVP Corporation, USA). […] Plasmids encoding the human wild-type SHP-1 and SHP-1 mutant, in which the N-SH2 domain was […] was changed into an […]) were cloned into the pCMV6-entry vector with myc-tag. These mutants were confirmed through DNA sequencing. […] (Chicago, Ill., USA).

[2] = tested on: LX2 cells; experiment: Apoptosis (Annexin V / propidium iodide flow cytometry), LX2 cells; type: cell-based, human; conditions: LX2; FIG. 16D, 16E
Protocol: Rat immortal hepatic stellate cell line HSC-T6 and LX2 human hepatic stellate cell line were provided by Professor Scott Friedman of Mount Sinai Hospital in New York, USA. The primary mouse HSCs were obtained via the way: after intubating the hepatic portal vein of the mouse, the cells were perfused with […] and ethylene glycol bis-aminoethyl ether tetraacetic acid (EGTA) buffer in situ, and then collagenase was injected to digest the liver tissue, and then the primary mouse HSCs were isolated by Histodnz gradient. HSC-T6 cells were cultured in Waymouth medium; LX2 cells and primary mouse HSCs were cultured in Dulbecco's Modified Eagle Medium (DMEM) containing 10% fetal bovine serum (FBS), 100 μg/mL penicillin, 100 μg/mL streptomycin, and 2 mM L-glutamine HSC-T6 cells, LX2 cells and primary mouse HSCs were cultured in a humidified incubator containing 5% carbon dioxide at 37° C. After adding the FBS, the resting HSC is started. […] The experiment was carried out following the manufacturer's instructions, and each group was triple repetition. […] The proportion of apoptotic cells was mixed the early (Annexin V+/PI-) and the late (Annexin V+/PI+) apoptotic cells measured by BD FACS Verse flow cytometry (BD, USA). Plasmids encoding the human wild-type SHP-1 and SHP-1 mutant, in which the N-SH2 domain was […] was changed into an […]) were cloned into the pCMV6-entry vector with myc-tag. These mutants were confirmed through DNA sequencing. […] (Chicago, Ill., USA).

[3] = molecular target: T1, SHP-1 (Homo sapiens, UniProt P29350); experiment: SHP-1 phosphatase activity, LX2 cells; type: cell-based; conditions: LX2; sorafenib 5 μM, compound 2.5 or 5 μM; FIG. 16C
T1 construct: LX2 cell protein extract were reacted with anti-SHP-1 antibody in immunoprecipitation buffer overnight; endogenous in cells; host or cells: LX2 cells
T1 sequence (P29350 whole entry): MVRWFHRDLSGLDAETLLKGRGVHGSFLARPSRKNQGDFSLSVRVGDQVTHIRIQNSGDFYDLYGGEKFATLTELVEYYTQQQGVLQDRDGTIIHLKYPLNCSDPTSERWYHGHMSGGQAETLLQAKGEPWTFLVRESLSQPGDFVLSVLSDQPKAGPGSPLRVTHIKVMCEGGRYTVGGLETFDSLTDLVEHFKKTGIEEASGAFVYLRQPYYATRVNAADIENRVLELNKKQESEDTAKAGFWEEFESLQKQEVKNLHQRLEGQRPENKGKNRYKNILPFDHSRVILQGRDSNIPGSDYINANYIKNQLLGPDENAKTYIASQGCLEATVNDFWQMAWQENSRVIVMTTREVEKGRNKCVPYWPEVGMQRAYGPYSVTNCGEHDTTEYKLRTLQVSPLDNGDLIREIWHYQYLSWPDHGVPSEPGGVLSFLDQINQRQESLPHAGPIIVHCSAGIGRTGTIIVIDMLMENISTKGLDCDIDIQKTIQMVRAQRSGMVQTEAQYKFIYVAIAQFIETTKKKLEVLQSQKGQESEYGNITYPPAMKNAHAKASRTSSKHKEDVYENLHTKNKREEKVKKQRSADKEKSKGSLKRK
Protocol: After drug treatment, mouse fibroblasts (NIH3T3 cell line), human lung epithelial cells (A549 cell line) or LX2 cell protein extract were reacted with anti-SHP-1 antibody in immunoprecipitation buffer overnight. Protein A/G Sepharose Fast Flow Beads (GE) were added to each sample, followed by a rotation reaction at 4° C. for 3 hours. The 96EnzChek® tyrosine phosphatase assay kit (R-22067) was used for SHP-1 activity assay (Invitrogen, USA).
Plasmids encoding the human wild-type SHP-1 and SHP-1 mutant, in which the N—SH2 domain was truncated (dN1) or one aspartic acid at site 61 was changed into an alanine residue (D61A) were cloned into the pCMV6-entry vector with myc-tag. These mutants were confirmed through DNA sequencing. Smart-pool siRNA, including the control (D-001810-10), and SHP-1 (PTPN6, L-009778-00-0005) were obtained from Dharmacon Inc. (Chicago, Ill., USA). For transient expression, SHP-1 plasmids or siRNA (final concentration, 100 nM) with the Lipofectamine 2000 transfection reagent were pretransfected into the LX2 cells for 24 h, following the manufacturer's instructions.

[4] = tested on: CCl4-induced hepatic fibrosis in mice; experiment: CCl4-induced hepatic fibrosis mice prevention model; type: in vivo, male C57BL/6J mice; conditions: concurrently administered with CCl4 for 4 weeks; FIG. 11A-11E
Text: (§1) In male C57BL/6J mice, liver fibrosis was induced by carbon tetrachloride (CCl4). The mice were given peritoneal injection of carbon tetrachloride for 4 or 8 weeks every two weeks.
(§2) The mice liver samples were stored in 10% formaldehyde, dehydrated with gradient alcohol, embedded in paraffin blocks, sectioned to a thickness of 3 μm, placed on glass slides, and stained with Picrosirius Red Stain kit (ScyTek, USA), following the manufacturer's instructions. The severity of liver fibrosis was graded according to the Ishak fibrosis score. Quantitative collagen-positive area (qCPA) was determined by densitometry via ImageJ software. Hepatic hydroxyproline concentrations were measured by the hydroxyproline assay kit (Biovision, USA), following the manufacturer's instructions Immunohistochemistry was performed by the Leica BOND-MAX automatic chromatograph (Leica Biosystems, Germany), following the manufacturer's instructions.

[5] = tested on: CCl4-induced hepatic fibrosis in mice; experiment: CCl4-induced hepatic fibrosis mice treatment model; type: in vivo, male C57BL/6J mice; conditions: compound 5, 10, or 20 mg/kg or sorafenib 10 mg/kg, with CCl4 for 6 weeks after 2 weeks CCl4 induction; FIG. 12A
Text: as §1, §2
Continuous variables are presented as mean (standard error), and categorical data are presented as number (percentage), as appropriate. Differences between subgroups were evaluated using the Student t test. Spearman's correlation was used for the association between SHP-1 and serum alanine aminotransferase (ALT). The mouse survival rate was estimated using the Kaplan-Meier method. The log-rank test was used to determine the statistical differences in survival of the different experimental groups. Statistical analysis was performed using STATA (version 13, Stata Corp, College Station, Tex., USA). All tests were two-sided, and P<0.05 was considered significant.

[6] = molecular target: T2, SHP-1 (Rattus norvegicus, UniProt P81718); experiment: SHP-1 phosphatase activity, HSC-T6 cells; type: cell-based; conditions: sorafenib 5 μM, compound 2.5 or 5 μM, FIG. 16C
T2 construct: endogenous in cells; host or cells: HSC-T6 cells
T2 sequence (P81718 whole entry): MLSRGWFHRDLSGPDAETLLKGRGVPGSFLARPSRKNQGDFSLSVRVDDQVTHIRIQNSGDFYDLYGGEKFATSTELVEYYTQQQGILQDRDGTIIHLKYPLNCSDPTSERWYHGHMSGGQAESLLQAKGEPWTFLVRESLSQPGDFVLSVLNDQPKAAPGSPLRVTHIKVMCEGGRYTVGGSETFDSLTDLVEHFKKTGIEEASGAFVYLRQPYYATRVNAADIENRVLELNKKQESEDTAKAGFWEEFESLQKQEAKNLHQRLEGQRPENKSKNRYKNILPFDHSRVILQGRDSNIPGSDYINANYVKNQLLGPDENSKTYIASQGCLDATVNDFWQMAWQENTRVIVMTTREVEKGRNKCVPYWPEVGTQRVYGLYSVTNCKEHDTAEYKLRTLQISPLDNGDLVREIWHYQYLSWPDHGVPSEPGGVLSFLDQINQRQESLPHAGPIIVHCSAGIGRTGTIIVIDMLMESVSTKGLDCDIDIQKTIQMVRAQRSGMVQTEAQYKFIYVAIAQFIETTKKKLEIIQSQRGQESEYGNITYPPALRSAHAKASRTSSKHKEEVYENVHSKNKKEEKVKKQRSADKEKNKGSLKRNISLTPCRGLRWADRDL

Row | Compound | p-STAT3 in compound-treated LX2 cells in the presence of a phosphatase inhibitor [1] | compound-induced apoptosis of LX2 cells in the presence of a phosphatase inhibitor [2] | SHP-1 activity [3] | hepatic fibrosis (Picrosirius Red staining, qCPA, Ishak fibrosis score, α-SMA expression, hydroxyproline concentration) [4] | hepatic fibrosis (picrosirius red staining) [5] | SHP-1 activity [6]
1 | O=C(O)COc1ccc(C(=O)CBr)cc1 [PTP inhibitor III, reference compound] | upregulated | rescued | – | – | – | –
2 | CNC(=O)c1cc(Oc2ccc(NC(=O)Nc3ccc(Cl)c(C(F)(F)F)c3)cc2)ccn1 [sorafenib, reference compound] | – | – | increases the activity of SHP-1 | significant fibrosis regression | significantly improved hepatic fibrosis | increases the activity of SHP-1
3 | Sodium vanadate [reference compound] | upregulation | rescued | – | – | – | –
